Marks after values point to notes of the source that are not given here.

Data set [1] deals with ERG response in the eyes of mice. Nature of the data set: Electroretinographic (ERG) study, BALB/c mice. The format is in vivo. Also noted: Vmax average: unit not given beside the values. The note with it: for b-wave ampl. 0.01 cd.s/m^2: dark-adapted ERG, in µV (unit assumed); for Vmax average: light-adapted ERG. The protocol:
(§1) Each test compound is dissolved in the control solvent (EtOH), and diluted 1:10 ([…]) in corn oil (Crisco Pure Corn Oil, J.M. Smucker Company, Orrville, Ohio) to the desired dose (mg/kg) in the desired volume (˜0.1 mL/animal). The control vehicle is ethanol: corn oil (1:10 (0.9 ml/9 ml)). The treatment designations and animal assignments are described in Table 16.
(§2) Animals are dosed once orally by gavage, with the assigned vehicle control or test compounds during the light cycle (between 30 min and 3 hours 30 min after the beginning of the light cycle).
(§3) ERG recordings are made on dark-adapted and, subsequently (during the course of the same experiment), on light-adapted states. For the dark-adapted response, animals are housed in a dark-adapted environment for at least 1 hour prior to the recording, commencing at least 30 minutes after the start of the light cycle.
(§4) Pupils were dilated by placing a 5 microliter drop of mydriatic solution (tropicamide 0.5%) in the recorded eye. A mouse corneal monopolar contact lens electrode (Mayo Corporation, Inazawa, Aichi, Japan) was placed on the cornea, and a subcutaneous reference low profile needle 12 mm electrode (Grass Telefactor, W Warwick, R.I.) was placed medial from the eye. A ground needle electrode was placed in the tail. Data collection was obtained using an Espion E^2 (Diagnosys LLC, Littleton, Mass.) ERG recording system with Color Dome Ganzfeld stimulator. Full dark-adapted intensity-response function was determined following a brief white flash stimuli of 14 intensities ranging from 0.0001 cd·s/m^2 to 333 cd·s/m^2. Subsequently, full light-adapted intensity-response function was determined following a brief white flash stimuli of 9 intensities ranging from 0.33 cd·s/m^2 to 333 cd·s/m^2. Analysis of the obtained responses was done off-line. Intensity-response function determination was done by fitting a sigmoid function to the data (Naka K I, Rushton Wash., 1966; Naka K I, Rushton Wash., 1967).
A related example describes determining the effect of an alkyne derivative compound that is a visual cycle modulator on the level of ERG response in the eyes of mice after oral dosing of the animals with the compound. The experimental procedure is the same as that described in the previous example with the following exceptions: 12 to 16-week old BALB/c mice were used (body weights 16-25 g).

Data set [2] shares this test system. The data set can be described thus: Electroretinographic (ERG) study, C57BL/6 mice. The format is in vivo. The conditions noted are these: for b-wave ampl. 0.01 cd.s/m^2: dark-adapted ERG, in µV (unit assumed); for Vmax average: light-adapted ERG. On the procedure: This example describes determining the effect of an alkyne derivative compound that is a visual cycle modulator on the magnitude of the ERG response in the eyes of mice after oral dosing of the animals with the compound. […]
Three groups of nine-week old mice (19-25 grams), both genders (strain C5 7BL/6, Charles River Laboratories, Wilmington, Mass.) are housed at room temperature, 72±4° F., and relative humidity of approximately 25%. Animals are housed in a 12-hour light/dark cycle environment, have free access to feed and drinking water and are checked for general health and well-being prior to use and during the study. Body weights are determined for a representative sample of mice prior to initiation of dosing. The average weight determined from this sampling is used to establish the dose for all mice in the study.
as §1, §2, §3, §4

Data set [3] deals with T1, recombinant human RPE65 and LRAT (Homo sapiens, UniProt Q16518).
T1 construct: expressed in transfected cells; host or cells: HEK293 cell clone (homogenate); CRALBP was made in E. coli TOP10
T1 sequence (Q16518 2-533 limits assumed): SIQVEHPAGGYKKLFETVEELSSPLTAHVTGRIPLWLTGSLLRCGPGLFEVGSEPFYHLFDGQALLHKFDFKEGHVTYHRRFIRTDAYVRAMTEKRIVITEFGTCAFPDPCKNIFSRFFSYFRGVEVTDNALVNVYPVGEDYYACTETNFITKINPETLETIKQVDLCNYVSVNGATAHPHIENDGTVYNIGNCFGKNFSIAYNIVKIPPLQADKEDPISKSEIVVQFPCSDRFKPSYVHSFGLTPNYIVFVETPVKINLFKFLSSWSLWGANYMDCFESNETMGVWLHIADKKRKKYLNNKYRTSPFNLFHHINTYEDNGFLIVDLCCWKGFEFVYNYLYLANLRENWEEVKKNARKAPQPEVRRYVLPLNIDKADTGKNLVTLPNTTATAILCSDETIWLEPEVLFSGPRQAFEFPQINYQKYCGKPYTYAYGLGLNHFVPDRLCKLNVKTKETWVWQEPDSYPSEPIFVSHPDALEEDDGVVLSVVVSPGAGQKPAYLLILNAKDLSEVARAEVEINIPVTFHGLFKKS
The data set can be described thus: In vitro isomerase inhibition assay, recombinant human enzyme system (HEK293 homogenate). The format is biochemical. On the procedure: The concentration dependent effect of the compounds disclosed herein on the retinol isomerization reaction can also be evaluated with a recombinant human enzyme system. […] A homogenate of HEK293 cell clone expressing recombinant human RPE65 and LRAT were the source of the visual enzymes, and exogenous all-trans-retinol (about 20 μM) was used as the substrate. Recombinant human CRALBP (about 80 ug/mL) was added to enhance the formation of 11-cis-retinal. The 200 μL Bis-Tris Phosphate buffer (10 mM, pH 7.2) based reaction mixture also contains 0.5% BSA, and 1 mM NaPPi. In this assay, the reaction was carried out at 37° C. in duplicates for one hour and was terminated by addition of 300 μL methanol. The amount of reaction product, 11-cis-retinol, was measured by HPLC analysis following Heptane extraction of the reaction mixture. […] The ability of the numerous compounds disclosed herein to inhibit isomerization reaction is quantified and the respective IC50 value is determined. The tables below summarises the IC50 values of various compounds of the present invention determined by either of the above two methods. FIG. 1 is a representative figure of the IC50 determination of the compound of Example 2.

Setting [4] is: 4 h, dose 1 (mg/kg oral), aggregated average.

As to `CCCC(O)(C#Cc1cccc(C(O)CCN)c1)CCC` (centres unmarked) [Example 19, 4-((3-(3-Amino-1-hydroxypropyl)phenyl)ethynyl)heptan-4-ol], the “Change vs. control (%)” value in data set [1] (dark-adapted ERG b-wave, 4 h, dose 0.2, BALB/c mice) is listed as −52.89%; in data set [1] (dark-adapted ERG b-wave, 4 h, dose 0.3, BALB/c mice), −80.77%; in data set [1] (dark-adapted ERG b-wave, 4 h, dose 0.6, BALB/c mice) it was −95.92%; in data set [1] (dark-adapted ERG b-wave, 25 h, dose 0.3, BALB/c mice, compared to 4 hours vehicle), −55.75%**; in data set [1] (light-adapted ERG Vmax, 4 h, dose 0.2, BALB/c mice) it was −0.13%; in data set [1] (light-adapted ERG Vmax, 4 h, dose 0.3, BALB/c mice), 11.33%. For the same molecule, the “Change vs. control (%)” value in data set [1] (light-adapted ERG Vmax, 4 h, dose 0.6, BALB/c mice) was 6.34%; in data set [1] (light-adapted ERG Vmax, 25 h, dose 0.3, BALB/c mice), 10.66%. The “b-wave ampl. 0.01 cd.s/m^2” value in data set [1] (4 h, dose 0.2, BALB/c mice) is 263; in data set [1] (4 h, dose 0.3, BALB/c mice, aggregated average), 107*; in data set [1] (4 h, dose 0.6, BALB/c mice) it was 23; in data set [1] (25 h, dose 0.3, BALB/c mice) it was 247. In addition, the Vmax average was 163 in data set [1] (4 h, dose 0.2, BALB/c mice); 181 in data set [1] (4 h, dose 0.3, BALB/c mice); 173 in data set [1] (4 h, dose 0.6, BALB/c mice); 180 in data set [1] (25 h, dose 0.3, BALB/c mice).

On to `CCCC(O)(C#Cc1cccc(CCCN)c1)CCC` [Example 2, 4-((3-(3-Aminopropyl)phenyl)ethynyl)heptan-4-ol], for which the “Change vs. control (%)” value was −50.65% in data set [2] (dark-adapted ERG b-wave, 4 h, dose 0.5 (mg/kg oral)); −94.04% in data set [2] (dark-adapted ERG b-wave, 4 h, dose 1 (mg/kg oral)); −19.93%** in data set [2] (dark-adapted ERG b-wave, 25 h, dose 1 (mg/kg oral), compared to 4 hours vehicle); 36.49% in data set [2] (light-adapted ERG Vmax, 4 h, dose 0.5 (mg/kg oral)); 77.03% in data set [2] (light-adapted ERG Vmax, 4 h, dose 1 (mg/kg oral)); 91.89%** in data set [2] (light-adapted ERG Vmax, 25 h, dose 1 (mg/kg oral), compared to 4 hours vehicle). For the same molecule, the “b-wave ampl. 0.01 cd.s/m^2” value in data set [2] (4 h, dose 0.5 (mg/kg oral)) is on record as 265; in data set [2] (setting [4]) it was 32*; in data set [2] (25 h, dose 1 (mg/kg oral)), 430. The Vmax average in data set [2] (4 h, dose 0.5 (mg/kg oral)) is on record as 202; in data set [2] (setting [4]), 262*; in data set [2] (25 h, dose 1 (mg/kg oral)), 284. Besides, in data set [3], the “inhibition of isomerase activity (figure legend)” value is given as “concentration-dependent inhibition”.

(Values after patent publication US8492589B2, “Alkynyl phenyl derivative compounds for treating ophthalmic diseases and disorders” (Acucela Inc., priority 2007, dated 2013).)
